Measured values from patent publication US12590070B2, “Adamantane derivatives as inhibitors of focal adhesion kinase” (SAMJIN PHARMACEUTICAL CO., LTD., priority 2019, dated 2026).

Tests used:
[1] = molecular target: T1, InsR (Homo sapiens, UniProt P06213); assay: ADP-Glo Kinase Assay, InsR; assay type: biochemical; details: ADP-Glo Kinase Assay Kit
T1 construct: purchased Promega V9401
Experimental: (§1) Briefly, a kinase test was performed and quantified according to the manufacturer's instructions after treating the adamantane derivative compound of the present invention by using the ADP-Glo™ Kinase Assay Kit (FAK, Promega, V1971; Pyk2, Promega, V4083; InsR, Promega, V9401) containing each kinase of Promega.

[2] = molecular target: T2, FAK (Homo sapiens, UniProt Q05397); assay: ADP-Glo Kinase Assay, FAK; assay type: biochemical; design: purchased Promega V1971; details: ADP-Glo Kinase Assay Kit
T2 sequence (Q05397 whole entry): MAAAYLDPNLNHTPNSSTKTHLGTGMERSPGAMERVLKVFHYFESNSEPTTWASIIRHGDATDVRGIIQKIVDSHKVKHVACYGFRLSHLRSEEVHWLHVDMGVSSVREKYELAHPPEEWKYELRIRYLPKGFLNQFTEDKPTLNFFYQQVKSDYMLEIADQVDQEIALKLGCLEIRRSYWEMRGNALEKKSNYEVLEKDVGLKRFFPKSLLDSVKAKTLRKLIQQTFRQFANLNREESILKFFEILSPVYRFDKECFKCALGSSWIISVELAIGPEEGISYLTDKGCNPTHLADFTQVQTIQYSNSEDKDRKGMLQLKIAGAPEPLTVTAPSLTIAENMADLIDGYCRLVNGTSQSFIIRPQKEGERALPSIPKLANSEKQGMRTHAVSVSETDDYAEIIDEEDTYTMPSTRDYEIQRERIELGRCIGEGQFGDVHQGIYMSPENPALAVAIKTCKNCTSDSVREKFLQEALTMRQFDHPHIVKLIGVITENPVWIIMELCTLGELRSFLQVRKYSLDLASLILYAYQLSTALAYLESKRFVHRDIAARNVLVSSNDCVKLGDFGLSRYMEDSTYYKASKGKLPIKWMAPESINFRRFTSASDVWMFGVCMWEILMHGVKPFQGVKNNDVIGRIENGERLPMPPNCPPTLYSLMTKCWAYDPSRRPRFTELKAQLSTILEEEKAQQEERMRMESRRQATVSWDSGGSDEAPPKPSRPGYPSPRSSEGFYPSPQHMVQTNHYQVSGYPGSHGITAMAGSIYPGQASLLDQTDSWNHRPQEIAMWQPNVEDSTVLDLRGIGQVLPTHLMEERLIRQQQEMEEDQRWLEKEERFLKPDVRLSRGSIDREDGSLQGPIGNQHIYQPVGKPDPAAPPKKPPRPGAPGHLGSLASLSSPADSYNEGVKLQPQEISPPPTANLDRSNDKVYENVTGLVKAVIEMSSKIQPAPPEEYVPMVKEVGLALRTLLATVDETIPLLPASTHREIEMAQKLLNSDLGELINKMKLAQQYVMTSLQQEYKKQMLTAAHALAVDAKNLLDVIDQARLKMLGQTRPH
Experimental: as §1

[3] = molecular target: T2, FAK; assay: FAK [pY397] ELISA in MDA-MB-231 cells; assay type: cell-based; design: endogenous in cells; host or cells: MDA-MB-231; details: MDA-MB-231, treated for one hour, Table 2; read-out: FAK inhibitory activity (IC50)
Experimental: Briefly, an enzyme-linked immunosorbent assay test was performed according to the manufacturer's instructions by using the FAK (Phospho) [pY397] Human ELISA Kit (Thermo Fisher Scientific, KH00441) after dispensing 1×10^6 MDA-MB-231 cells into each well of a 6-well plate, inducing cell stabilization for 24 hours, and treating each compound at different concentrations (o, 1, 5, 10, 50, 100, 500, 1000 nM) for one hour.

[4] = molecular target: T3, Pyk2 (Homo sapiens, UniProt Q14289); assay: ADP-Glo Kinase Assay, Pyk2; assay type: biochemical; details: ADP-Glo Kinase Assay Kit
T3 construct: purchased Promega V4083
T3 sequence (Q14289 whole entry): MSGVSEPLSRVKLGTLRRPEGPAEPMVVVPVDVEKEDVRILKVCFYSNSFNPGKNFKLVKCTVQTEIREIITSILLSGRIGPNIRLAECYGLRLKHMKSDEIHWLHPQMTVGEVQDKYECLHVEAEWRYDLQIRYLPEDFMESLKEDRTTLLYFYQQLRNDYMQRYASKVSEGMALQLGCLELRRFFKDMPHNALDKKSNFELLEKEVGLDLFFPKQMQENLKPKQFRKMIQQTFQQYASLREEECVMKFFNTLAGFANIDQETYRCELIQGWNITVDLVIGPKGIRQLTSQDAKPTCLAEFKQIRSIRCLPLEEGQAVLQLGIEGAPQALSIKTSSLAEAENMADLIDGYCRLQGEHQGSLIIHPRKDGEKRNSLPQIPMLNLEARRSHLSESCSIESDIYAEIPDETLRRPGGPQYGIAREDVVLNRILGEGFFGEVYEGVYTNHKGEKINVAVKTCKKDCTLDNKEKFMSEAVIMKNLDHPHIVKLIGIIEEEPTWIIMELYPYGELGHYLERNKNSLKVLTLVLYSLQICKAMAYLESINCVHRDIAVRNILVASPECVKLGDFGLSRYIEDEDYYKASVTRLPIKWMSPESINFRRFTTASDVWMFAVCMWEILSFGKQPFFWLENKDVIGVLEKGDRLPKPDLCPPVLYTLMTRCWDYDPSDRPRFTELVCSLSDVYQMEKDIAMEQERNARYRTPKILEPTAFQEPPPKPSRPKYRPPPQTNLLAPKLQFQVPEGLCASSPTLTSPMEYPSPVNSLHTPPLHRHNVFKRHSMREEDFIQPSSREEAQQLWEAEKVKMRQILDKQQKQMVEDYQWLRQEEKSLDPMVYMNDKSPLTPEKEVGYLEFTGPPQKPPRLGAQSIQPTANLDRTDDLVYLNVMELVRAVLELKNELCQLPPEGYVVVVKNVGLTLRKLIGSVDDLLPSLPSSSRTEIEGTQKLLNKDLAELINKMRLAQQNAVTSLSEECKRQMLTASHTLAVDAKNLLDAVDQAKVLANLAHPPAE
Experimental: as §1

T1 sequence (P06213 28-1382): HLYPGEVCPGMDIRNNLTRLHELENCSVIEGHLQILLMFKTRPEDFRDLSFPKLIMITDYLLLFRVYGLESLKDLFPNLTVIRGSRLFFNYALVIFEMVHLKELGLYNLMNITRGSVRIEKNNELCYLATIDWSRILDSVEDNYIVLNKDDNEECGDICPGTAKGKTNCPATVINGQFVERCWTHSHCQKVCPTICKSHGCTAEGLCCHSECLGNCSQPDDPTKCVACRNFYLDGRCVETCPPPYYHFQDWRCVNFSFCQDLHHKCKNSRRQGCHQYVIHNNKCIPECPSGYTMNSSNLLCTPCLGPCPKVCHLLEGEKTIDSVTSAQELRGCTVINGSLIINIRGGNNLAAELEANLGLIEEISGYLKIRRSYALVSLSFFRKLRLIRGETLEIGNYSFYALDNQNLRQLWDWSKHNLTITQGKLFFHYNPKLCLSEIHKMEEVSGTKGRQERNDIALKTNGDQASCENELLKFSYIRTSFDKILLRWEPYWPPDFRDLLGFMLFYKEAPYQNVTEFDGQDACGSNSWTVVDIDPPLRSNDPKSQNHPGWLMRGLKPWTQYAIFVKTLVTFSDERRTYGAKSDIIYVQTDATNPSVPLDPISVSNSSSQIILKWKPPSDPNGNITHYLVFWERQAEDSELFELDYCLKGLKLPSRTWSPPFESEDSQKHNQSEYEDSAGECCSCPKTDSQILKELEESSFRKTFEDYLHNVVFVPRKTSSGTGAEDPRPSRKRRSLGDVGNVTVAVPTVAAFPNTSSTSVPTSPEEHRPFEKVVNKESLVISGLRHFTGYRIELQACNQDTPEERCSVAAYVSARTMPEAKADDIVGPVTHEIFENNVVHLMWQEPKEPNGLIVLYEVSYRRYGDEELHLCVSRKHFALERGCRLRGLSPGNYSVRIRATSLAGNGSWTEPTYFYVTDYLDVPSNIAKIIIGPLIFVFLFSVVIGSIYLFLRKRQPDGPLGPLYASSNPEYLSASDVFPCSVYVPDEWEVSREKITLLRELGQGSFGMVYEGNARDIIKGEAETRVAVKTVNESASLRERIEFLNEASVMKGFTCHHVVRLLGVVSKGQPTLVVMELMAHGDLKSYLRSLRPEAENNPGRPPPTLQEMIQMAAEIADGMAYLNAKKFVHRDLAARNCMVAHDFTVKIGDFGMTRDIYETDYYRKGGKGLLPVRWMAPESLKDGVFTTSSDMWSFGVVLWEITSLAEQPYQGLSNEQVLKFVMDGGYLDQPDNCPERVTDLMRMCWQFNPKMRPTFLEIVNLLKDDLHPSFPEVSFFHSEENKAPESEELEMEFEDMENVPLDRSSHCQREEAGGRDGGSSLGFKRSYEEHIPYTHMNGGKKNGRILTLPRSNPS

CNC(=O)c1cccc(C)c1Nc1nc(Nc2ccc(NC3C4CC5CC(C4)CC3C5)cc2OC)ncc1C(F)(F)F (stereo not shown) [Compound 2, 2-((2-((4-(adamantan-2-ylamino)-2-methoxyphenyl)amino)-5-(trifluoromethyl)pyrimidin-4-yl)amino)-N,3-dimethylbenzamide]
IC50 [1]: > 10000 nM
IC50 [2]: 206 nM
IC50 [3]: 111 nM

CNC(=O)c1cccc(C)c1Nc1nc(Nc2ccc(N3CCN([C@H]4C5CC6CC4C[C@@](O)(C6)C5)CC3)cc2OC)ncc1C(F)(F)F [Compound 5, 2-((2-((4-(4-((cis)-5-hydroxyadamantan-2-yl)piperazin-1-yl)-2-methoxyphenyl)amino)-5-(trifluoromethyl)pyrimidin-4-yl)amino)-N,3-dimethylbenzamide]
IC50 [1]: 4680 nM
IC50 [2]: 69.9 nM
IC50 [3]: 32 nM

CNC(=O)c1cccc(C)c1Nc1nc(Nc2ccc(NC3CCN([C@H]4C5CC6CC4C[C@@](O)(C6)C5)CC3)cc2OC)ncc1C(F)(F)F [Compound 8, 2-((2-((4-((1-((cis)-5-hydroxyadamantan-2-yl)piperidin-4-yl)amino)-2-methoxyphenyl)amino)-5-(trifluoromethyl)pyrimidin-4-yl)amino)-N,3-dimethylbenzamide]
IC50 [1]: > 10000 nM
IC50 [2]: 53.3 nM
IC50 [3]: 121 nM

CNC(=O)c1cccc(C)c1Nc1nc(Nc2ccc(OC3CCN(C4C5CC6CC(C5)CC4C6)CC3)cc2OC)ncc1C(F)(F)F (stereo not shown) [Compound 9, 2-((2-((4-((1-(adamantan-2-yl)piperidin-4-yl)oxy)-2-methoxyphenyl)amino)-5-(trifluoromethyl)pyrimidin-4-yl)amino)-N,3-dimethylbenzamide]
IC50 [1]: > 10000 nM
IC50 [2]: 98.1 nM

CNC(=O)c1cccc(C)c1Nc1nc(Nc2ccc(O[C@]34CC5CC(C3)[C@@H](N3CC[C@H](NC(C)=O)C3)C(C5)C4)cc2OC)ncc1C(F)(F)F [Compound 14, 2-((2-((4-(((trans)-4-((S)-3-acetamidopyrrolidin-1-yl)adamantan-1-yl)oxy)-2-methoxyphenyl)amino)-5-(trifluoromethyl)pyrimidin-4-yl)amino)-N,3-dimethylbenzamide]
IC50 [2]: 57 nM

CNC(=O)c1cccc(C)c1Nc1nc(Nc2ccc(OC3C4CC5CC3CC(C(=O)NC)(C5)C4)cc2OC)ncc1C(F)(F)F (stereo not shown) [Compound 18, 4-(3-methoxy-4-((4-((2-methyl-6-(methylcarbamoyl)phenyl)amino)-5-(trifluoromethyl)pyrimidin-2-yl)amino)phenoxy)-N-methyladamantan-1-carboxamide]
IC50 [2]: 92.9 nM

CNC(=O)c1cccc(C)c1Nc1nc(Nc2ccc(OC3C4CC5CC3CC(C(=O)N3CCOCC3)(C5)C4)cc2OC)ncc1C(F)(F)F (stereo not shown) [Compound 19, 2-((2-((2-methoxy-4-((5-(morpholin-4-carbonyl)adamantan-2-yl)oxy)phenyl)amino)-5-(trifluoromethyl)pyrimidin-4-yl)amino)-N,3-dimethylbenzamide]
IC50 [2]: 127 nM

CNC(=O)c1cccc(C)c1Nc1nc(Nc2ccc(OC3C4CC5CC3CC(C(=O)N3CCN(C)CC3)(C5)C4)cc2OC)ncc1C(F)(F)F (stereo not shown) [Compound 20, 2-((2-((2-methoxy-4-((5-(4-methylpiperazin-1-carbonyl)adamantan-2-yl)oxy)phenyl)amino)-5-(trifluoromethyl)pyrimidin-4-yl)amino)-N,3-dimethylbenzamide]
IC50 [2]: 98.9 nM
IC50 [3]: 153 nM

CNC(=O)c1cccc(C)c1Nc1nc(Nc2ccc(NC3C4CC5CC3CC(C(=O)N3CCOCC3)(C5)C4)cc2OC)ncc1C(F)(F)F (stereo not shown) [Compound 22, 2-((2-((2-methoxy-4-((5-(morpholin-4-carbonyl)adamantan-2-yl)amino)phenyl)amino)-5-(trifluoromethyl)pyrimidin-4-yl)amino)-N,3-dimethylbenzamide]
IC50 [2]: 57 nM

CNC(=O)c1cccc(C)c1Nc1nc(Nc2ccc(NC3C4CC5CC3CC(C(=O)N3CCN(C)CC3)(C5)C4)cc2OC)ncc1C(F)(F)F (stereo not shown) [Compound 23, 2-((2-((2-methoxy-4-((5-(4-methylpiperazin-1-carbonyl)adamantan-2-yl)amino)phenyl)amino)-5-(trifluoromethyl)pyrimidin-4-yl)amino)-N,3-dimethylbenzamide]
IC50 [2]: 77.5 nM
IC50 [3]: 234 nM

CNC(=O)c1cccc(C)c1Nc1nc(Nc2ccc(NC(=O)[C@]34CC5CC(C3)[C@H](N3CC[C@H](NC(C)=O)C3)C(C5)C4)cc2OC)ncc1C(F)(F)F [Compound 28, (cis)-4-((S)-3-acetamidopyrrolidin-1-yl)-N-(3-methoxy-4-((4-((2-methyl-6-(methylcarbamoyl)phenyl)amino)-5-(trifluoromethyl)pyrimidin-2-yl)amino)phenyl) adamantan-1-carboxamide]
IC50 [1]: > 10000 nM
IC50 [4]: 64.5 nM
IC50 [2]: 29 nM

CNC(=O)c1cccc(C)c1Nc1nc(Nc2ccc(NC(=O)[C@]34CC5CC(C3)[C@@H](N3CC[C@H](N)C3)C(C5)C4)cc2OC)ncc1C(F)(F)F [Compound 30, (trans)-4-((S)-3-aminopyrrolidin-1-yl)-N-(3-methoxy-4-((4-((2-methyl-6-(methylcarbamoyl)phenyl)amino)-5-(trifluoromethyl)pyrimidin-2-yl)amino)phenyl) adamantan-1-carboxamide]
IC50 [1]: 3800 nM
IC50 [4]: 18.2 nM

CNC(=O)c1cccc(C)c1Nc1nc(Nc2ccc(C3CCN([C@H]4C5CC6CC4C[C@](O)(C6)C5)CC3)cc2OC)ncc1C(F)(F)F [Compound 32, 2-((2-((4-(1-((trans)-5-hydroxyadamantan-2-yl)piperidin-4-yl)-2-methoxyphenyl)amino)-5-(trifluoromethyl)pyrimidin-4-yl)amino)-N,3-dimethylbenzamide]
IC50 [1]: 2150 nM
IC50 [4]: 154 nM

CNC(=O)c1cccc(C)c1Nc1nc(Nc2ccc(C3CCN([C@H]4C5CC6CC4C[C@@](O)(C6)C5)CC3)cc2OC)ncc1C(F)(F)F [Compound 33, 2-((2-((4-(1-((cis)-5-hydroxyadamantan-2-yl)piperidin-4-yl)-2-methoxyphenyl)amino)-5-(trifluoromethyl)pyrimidin-4-yl)amino)-N,3-dimethylbenzamide]
IC50 [1]: 2050 nM
IC50 [4]: 101 nM

COc1cc(C2CCN([C@H]3C4CC5CC3C[C@](O)(C5)C4)CC2)ccc1Nc1ncc(C(F)(F)F)c(Nc2c(C)cccc2C(N)=O)n1 [Compound 34, 2-((2-((4-(1-((trans)-5-hydroxyadamantan-2-yl)piperidin-4-yl)-2-methoxyphenyl)amino)-5-(trifluoromethyl)pyrimidin-4-yl)amino)-3-methylbenzamide]
IC50 [1]: 1640 nM
IC50 [4]: 427 nM

COc1cc(C2CCN([C@H]3C4CC5CC3C[C@](O)(C5)C4)CC2)ccc1Nc1ncc(C(F)(F)F)c(Nc2c(C)cccc2C(N)=O)n1 [Compound 35, 2-((2-((4-(1-((cis)-5-hydroxyadamantan-2-yl)piperidin-4-yl)-2-methoxyphenyl)amino)-5-(trifluoromethyl)pyrimidin-4-yl)amino)-3-methylbenzamide]
IC50 [1]: 1440 nM
IC50 [4]: 418 nM

CNC(=O)c1cccc(C)c1Nc1nc(Nc2ccc(N3CCN([C@H]4C5CC6CC4C[C@@](O)(C6)C5)CC3)cc2OC)ncc1Cl [Compound 36, 2-((5-chloro-2-((4-(4-((trans)-5-hydroxyadamantan-2-yl)piperazin-1-yl)-2-methoxyphenyl)amino)-pyrimidin-4-yl)amino)-N,3-dimethylbenzamide]
IC50 [2]: 61.4 nM

CNC(=O)c1cccc(C)c1Nc1nc(Nc2ccc(N3CCN([C@H]4C5CC6CC4C[C@](C(=O)OC)(C6)C5)CC3)cc2OC)ncc1C(F)(F)F [Compound 37, methyl (trans)-4-(4-(3-methoxy-4-((4-((2-methyl-6-(methylcarbamoyl)phenyl)amino)-5-(trifluoromethyl)pyrimidin-2-yl)amino)phenyl)piperazin-1-yl) adamantan-1-carboxylate]
IC50 [2]: 43.6 nM

CNC(=O)c1cccc(C)c1Nc1nc(Nc2ccc(N3CCN([C@H]4C5CC6CC4C[C@@](C(=O)OC)(C6)C5)CC3)cc2OC)ncc1C(F)(F)F [Compound 38, methyl (cis)-4-(4-(3-methoxy-4-((4-((2-methyl-6-(methylcarbamoyl)phenyl)amino)-5-(trifluoromethyl)pyrimidin-2-yl)amino)phenyl)piperazin-1-yl) adamantan-1-carboxylate]
IC50 [2]: 70 nM

CNC(=O)c1cccc(C)c1Nc1nc(Nc2ccc(N3CCN([C@H]4C5CC6CC4C[C@](C(=O)O)(C6)C5)CC3)cc2OC)ncc1C(F)(F)F [Compound 39, (trans)-4-(4-(3-methoxy-4-((4-((2-methyl-6-(methylcarbamoyl)phenyl)amino)-5-(trifluoromethyl)pyrimidin-2-yl)amino)phenyl)piperazin-1-yl) adamantan-1-carboxylic acid]
IC50 [2]: 58 nM

CNC(=O)c1cccc(C)c1Nc1nc(Nc2ccc(N3CCN([C@H]4C5CC6CC4C[C@](C(=O)O)(C6)C5)CC3)cc2OC)ncc1C(F)(F)F [Compound 40, (cis)-4-(4-(3-methoxy-4-((4-((2-methyl-6-(methylcarbamoyl)phenyl)amino)-5-(trifluoromethyl)pyrimidin-2-yl)amino)phenyl)piperazin-1-yl) adamantan-1-carboxylic acid]
IC50 [2]: 58.3 nM
